Test system: HEK293T cells
Settings: human

COc1ncc(-c2ccc3nc(N)n(-c4ccc(N5CCOCC5)cc4)c3c2)cc1S(=O)(=O)Nc1ccccc1F [A1, 5-(2-amino-1-(4-(4-morpholinyl)phenyl)-1H-benzimidazol-6-yl)-N-(2-fluorophenyl)-2-methoxy-3-pyridinesulfonamide]
concentration that killed most of the cells: ≥ 250 nM
